Assay results taken from patent US20110020312A1, “METHODS FOR TREATMENT OF METABOLIC DISORDERS USING EPIMETABOLIC SHIFTERS, MULTIDIMENSIONAL INTRACELLULAR MOLECULES, OR ENVIRONMENTAL INFLUENCERS” (priority 2009, published 2011).

System: Pyruvate Kinase M2 (PKM2)
Assay: Western blot, Pyruvate Kinase M2 levels
Format: cell-based, human
Description: The samples were processed and run on a 4-12% Bis-Tris Novex NuPAGE gel as described above. The gels were run, transferred and stained essentially as described above.
The lactate dehydrogenase blots were stripped by incubating for 30 minutes with methanol, followed by two 10 minute washes with TBS-T, then 30 minutes of incubation with Stripping buffer at 50 deg C., and followed by two washes with 100 ml or more of TBS-T for 30′ each. The 2 blots were scanned in laser scanner to check for complete stripping. The blots were activated with methanol for 5 seconds, washed with water for 5 minutes, and TBST for 15 minutes. The blots were blocked for 1 hour with 5% blocking reagent in TBS-T at room temperature and then washed 3 times with TBS-T (1×-15′; 2×5′ each) and probed with the rabbit polyclonal antibody for Pyruvate Kinase M2 in 5% BSA (NOVUS BIOLOGICALS catalog #H00005315-DO1P) at 1:500 dilution overnight at 4 deg C. with shaking. After the overnight incubation with primary antibody for Pyruvate Kinase M2, the membranes were washed 3 times with TBS-T (1×-15′; 2×5′ each) and probed with the secondary antibody (antirabbit; 1:10,000 dilution) for 1 h on the orbital tilting shaker at room temperature. After 1 h of incubation with secondary antibodies, the blots were washed 3 times with TBS-T (1×-15′; 2×5′ each) and then incubated with ECF reagent for 5 minutes and then each blot scanned with 5100 Fuji Laser scanner at 25 uM resolution, 16 bit, green laser, at 400V and at 500 V.
The HASMC samples were processed and the gels were run, transferred, stained and scanned essentially as described above.
The above blots were stripped by incubating for 30 minutes with methanol, followed by two 10 minute washes with TBS-T, then 30 minutes of incubation with Stripping buffer at 50 deg C., and followed by two washes with 100 ml or more of TBS-T for 30′ each. The blots were scanned in laser scanner to check for complete stripping. The blots were activated with methanol for 5 seconds, washed with water for 5 minutes, and TBST for 15 minutes. The blots were blocked for 1 hour with 5% blocking reagent in TBS-T at room temperature and then washed 3 times with TBS-T (1×-15′; 2×5′ each) and probed with the primary antibody for PKM2, SDHB or SDHC in 5% BSA in TBS-T by incubation overnight at 4 deg C. with gentle shaking. The primary antibody for SDHC (ABNOVA H00006391-MO2; antimouse) was at 1:500 dilution. The primary antibody for SDHB was from Abcam ab4714-200; antimouse; at 1:1000 dilution. The primary antibody for Pyruvate Kinase M2 (PKM2) was from Novus Biologicals H00005315-D0IP; antirabbit; at 1:500 dilution. After incubation with primary antibodies, the membranes were washed 3 times with TBS-T (1×-15′; 2×5′ each) and probed with the secondary antibody (SDHB & C antimouse; and PKM2 antirabbit; 1:10,000 dilution) for 1 h on the orbital tilting shaker at room temperature. After 1 h of incubation, the blots were washed 3 times with TBS-T (1×-15′; 2×5′ each) and incubated with ECF reagent for 5 minutes and then each blot scanned with 5100 Fuji Laser scanner at 25 uM resolution, 16 bit, green laser, at 400V and at 500 V.

Q: `COC1=C(OC)C(=O)C(C/C=C(\C)CC/C=C(\C)CC/C=C(\C)CC/C=C(\C)CC/C=C(\C)CC/C=C(\C)CC/C=C(\C)CC/C=C(\C)CC/C=C(\C)CCC=C(C)C)=C(C)C1=O` [Q10, Coenzyme Q10] was tested. Which “Pyruvate Kinase Muscle form 2 Upper Band Normalized Intensity” value (HASMC, 5g48-50) did it give?
A: 811

Q: What about the “Pyruvate Kinase Muscle form 2 Upper Band Normalized Intensity” value (HASMC, 5g48-100) of the same molecule?
A: 611

Q: What about the “Pyruvate Kinase Muscle form 2 Upper Band Normalized Intensity” value (HASMC, 22G24-50) of the same molecule?
A: 477

Q: And the “Pyruvate Kinase Muscle form 2 Upper Band Normalized Intensity” value (HASMC, 22G24-100)?
A: 701

Q: And the “Pyruvate Kinase Muscle form 2 Upper Band Normalized Intensity” value (HASMC, 22G48-50)?
A: 595

Q: What about the “Pyruvate Kinase Muscle form 2 Upper Band Normalized Intensity” value (HASMC, 22G48-100) of the same molecule?
A: 496

Q: What about the “Pyruvate Kinase Muscle form 2 Upper Band Normalized Volume” value (HepG2, 5g-50, 24 h) of the same molecule?
A: 29269

Q: What about the “Pyruvate Kinase Muscle form 2 Upper Band Normalized Intensity” value (HepG2, 5g-50, 48 h) of the same molecule?
A: 303

Q: And the “Pyruvate Kinase Muscle form 2 Upper Band Normalized Volume” value (HepG2, 5g-100, 24 h)?
A: 18307

Q: And the “Pyruvate Kinase Muscle form 2 Upper Band Normalized Intensity” value (HepG2, 5g-100, 48 h)?
A: 354

Q: What about the “Pyruvate Kinase Muscle form 2 Upper Band Normalized Volume” value (HepG2, 22G-50, 24 h) of the same molecule?
A: 22294

Q: What about the “Pyruvate Kinase Muscle form 2 Upper Band Normalized Intensity” value (HepG2, 22G-50, 48 h) of the same molecule?
A: 562

Q: And the “Pyruvate Kinase Muscle form 2 Upper Band Normalized Volume” value (HepG2, 22G-100, 24 h)?
A: 19560

Q: What about the “Pyruvate Kinase Muscle form 2 Upper Band Normalized Intensity” value (HepG2, 22G-100, 48 h) of the same molecule?
A: 601

Q: What about the PKM2 expression (cancer cells tested) of the same molecule?
A: dose-dependent decrease

Q: And the PKM2 expression (normal cells)?
A: no major changes
